Data on four molecules can be found in ChEMBL document CHEMBL6134930, “Discovery of AB801, a Potent and Selective Inhibitor of AXL Receptor Tyrosine Kinase for Use in Cancer Therapy” (J Med Chem, 2025).

A short description of series [1]: Apparent permeability of compound from apical to basolateral side in human Caco-2 cells. The format is ADME, cell-based. As to conditions: read-out: permeability. (Caco-2 cells form a polarised layer with tight junctions and transporters.)
A short description of series [2]: Metabolic stability in human hepatocytes assessed as intrinsic clearance measured per 10^6 cells. The settings on record: read-out: CLH. The format is ADME, cell-based, Hepatocyte.
Series [3] is described as follows: Efflux ratio in human Caco-2 cells. Format: ADME, cell-based.
A short description of series [4]: AUCinf in Sprague-Dawley rat at 2 mg/kg, po measured up to 8 hrs by LC-MS/MS analysis. The format is ADME, organism-based. As to conditions: in vivo.
The nature of series [5]: Metabolic stability in rat hepatocytes assessed as intrinsic clearance measured per 10^6 cells. The format is ADME, cell-based, Hepatocyte. As to conditions: read-out: CLH.
A short description of series [6]: Clearance in Sprague-Dawley rat at 0.5 mg/kg, iv measured up to 24 hrs by LC-MS/MS analysis. The format is ADME, organism-based. As to conditions: in vivo.
Series [7] deals with T1, Tyrosine-protein kinase receptor UFO (Homo sapiens, UniProt P30530).
T1 sequence (P30530 whole entry): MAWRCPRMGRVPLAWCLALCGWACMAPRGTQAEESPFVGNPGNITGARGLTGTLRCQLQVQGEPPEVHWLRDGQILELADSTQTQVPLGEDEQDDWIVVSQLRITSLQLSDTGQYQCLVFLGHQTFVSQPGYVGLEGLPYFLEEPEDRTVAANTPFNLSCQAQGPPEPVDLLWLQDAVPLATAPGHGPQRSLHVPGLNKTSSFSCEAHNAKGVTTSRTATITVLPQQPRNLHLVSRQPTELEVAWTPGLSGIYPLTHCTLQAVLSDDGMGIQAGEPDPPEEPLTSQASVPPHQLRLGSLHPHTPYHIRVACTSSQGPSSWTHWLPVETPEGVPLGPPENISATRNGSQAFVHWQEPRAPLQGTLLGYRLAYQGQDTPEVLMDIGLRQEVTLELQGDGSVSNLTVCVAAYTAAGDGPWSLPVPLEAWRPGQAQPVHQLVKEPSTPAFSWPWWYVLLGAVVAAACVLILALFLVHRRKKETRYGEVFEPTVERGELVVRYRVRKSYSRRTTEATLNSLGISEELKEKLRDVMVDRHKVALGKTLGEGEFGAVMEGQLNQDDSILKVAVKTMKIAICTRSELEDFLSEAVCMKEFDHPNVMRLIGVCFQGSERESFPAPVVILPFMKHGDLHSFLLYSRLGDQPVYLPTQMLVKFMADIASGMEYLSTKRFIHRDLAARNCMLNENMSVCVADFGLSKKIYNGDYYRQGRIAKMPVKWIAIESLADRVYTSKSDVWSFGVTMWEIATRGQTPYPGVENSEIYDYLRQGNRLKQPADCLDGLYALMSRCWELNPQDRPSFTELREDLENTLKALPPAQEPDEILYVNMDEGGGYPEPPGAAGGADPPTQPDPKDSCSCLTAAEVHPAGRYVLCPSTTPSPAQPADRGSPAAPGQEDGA
The experiment in a line: Inhibition of autophosphorylation AXL (unknown origin) expressed in HEK293 cells assessed as NanoLuc activity associated with phosphorylated proteins measured after 1 hr incubation by intracellular pAXL-ELISA. Format: cell-based.

For series [8], the target named is T1, Tyrosine-protein kinase receptor UFO. The experiment in a line: Inhibition of human AXL measured after 150 mins by ATP-competitive HTRF based biochemical assay. For orientation: Time-resolved FRET reads energy transfer from a long-lived donor to a nearby acceptor.
Series [9] has the same target. The experiment in a line: Binding affinity to AXL (unknown origin) expressed in HEK293 cells transfected with Nano-Luc fusion vector assessed as dissociation constant by measuring decrease in BRET signal preincubated for 1 hr followed by K-5 NanoBRET tracer addition incubated for 2 hrs. The format is cell-based. A general note: BRET reads energy transfer from a luciferase to a nearby fluorophore.

Series [10] concerns the target hERG (KCNH2) (Homo sapiens, UniProt Q12809). The experiment in a line: Inhibition of hERG at 10 uM by high throughput cell based patch clamp assay. Format: toxicity.
Series [11] deals with 786-0. The experiment in a line: Anti-tumor activity against human 786-0 cells xenografted in mouse model assessed as tumor growth inhibition at 40 mg/kg, po once daily for 15 days. The settings on record: time 15.0 day. Format: functional, organism-based.
A short description of series [12]: Clearance in Beagle dog at 0.5 mg/kg, iv measured up to 24 hrs by LC-MS/MS analysis. Format: ADME, organism-based, Canis lupus familiaris. The settings on record: in vivo.
The target in series [13] is T2, CYP1A2 (Homo sapiens, UniProt P05177).
T2 sequence (P05177 whole entry): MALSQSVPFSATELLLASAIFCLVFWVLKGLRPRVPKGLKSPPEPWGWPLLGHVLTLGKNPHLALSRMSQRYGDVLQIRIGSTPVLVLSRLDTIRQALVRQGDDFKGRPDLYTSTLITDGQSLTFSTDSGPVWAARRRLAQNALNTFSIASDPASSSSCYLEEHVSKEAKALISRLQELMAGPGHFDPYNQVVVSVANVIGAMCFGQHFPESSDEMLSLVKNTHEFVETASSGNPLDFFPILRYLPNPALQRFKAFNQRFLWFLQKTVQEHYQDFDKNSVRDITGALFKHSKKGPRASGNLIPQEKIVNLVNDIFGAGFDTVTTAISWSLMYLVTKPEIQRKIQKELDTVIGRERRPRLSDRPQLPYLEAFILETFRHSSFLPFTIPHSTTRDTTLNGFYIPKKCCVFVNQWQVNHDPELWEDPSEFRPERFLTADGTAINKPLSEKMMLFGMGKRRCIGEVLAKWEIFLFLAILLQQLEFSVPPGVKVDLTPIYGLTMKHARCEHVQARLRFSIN
The experiment in a line: Time dependent inhibition of CYP1A2 (unknown origin) at 30 uM measured after 30 mins relative to control. The format is ADME. The settings on record: read-out: TDI.

For series [14], the target named is CYP2D6 (Homo sapiens, UniProt P10635). The experiment in a line: Time dependent inhibition of CYP2D6 (unknown origin) at 30 uM measured after 30 mins relative to control. The settings on record: read-out: TDI. Format: ADME.
Series [15] concerns the target CYP2C19 (Homo sapiens, UniProt P33261). The experiment in a line: Time dependent inhibition of CYP2C19 (unknown origin) at 30 uM measured after 30 mins relative to control. The format is ADME. The settings on record: read-out: TDI.
Series [16] addresses T3, CYP3A4 (Homo sapiens, UniProt P08684). The experiment in a line: Time dependent inhibition of CYP3A4 (unknown origin) using midazolam as substrate at 30 uM measured after 30 mins relative to control. The format is ADME. The settings on record: probe midazolam, read-out: TDI.
Series [17] addresses T4, CYP2B6 (Homo sapiens, UniProt P20813).
T4 sequence (P20813 whole entry): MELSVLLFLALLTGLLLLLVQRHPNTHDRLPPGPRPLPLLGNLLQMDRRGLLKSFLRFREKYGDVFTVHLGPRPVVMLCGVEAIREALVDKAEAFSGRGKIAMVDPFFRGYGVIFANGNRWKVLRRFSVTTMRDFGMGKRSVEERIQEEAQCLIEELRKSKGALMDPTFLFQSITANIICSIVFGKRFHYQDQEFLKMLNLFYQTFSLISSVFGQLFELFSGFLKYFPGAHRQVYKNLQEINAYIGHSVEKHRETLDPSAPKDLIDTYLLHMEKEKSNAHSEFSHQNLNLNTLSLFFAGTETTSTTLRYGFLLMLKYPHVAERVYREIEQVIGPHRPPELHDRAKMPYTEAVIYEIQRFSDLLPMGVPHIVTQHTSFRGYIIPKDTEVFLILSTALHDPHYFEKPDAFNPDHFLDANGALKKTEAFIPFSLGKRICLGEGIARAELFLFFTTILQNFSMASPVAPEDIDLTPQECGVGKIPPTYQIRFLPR
The experiment in a line: Time dependent inhibition of CYP2B6 (unknown origin) at 30 uM measured after 30 mins relative to control. The format is ADME. As to conditions: read-out: TDI.

In series [18] the target is T5, CYP2C8 (Homo sapiens, UniProt P10632).
T5 sequence (P10632 whole entry): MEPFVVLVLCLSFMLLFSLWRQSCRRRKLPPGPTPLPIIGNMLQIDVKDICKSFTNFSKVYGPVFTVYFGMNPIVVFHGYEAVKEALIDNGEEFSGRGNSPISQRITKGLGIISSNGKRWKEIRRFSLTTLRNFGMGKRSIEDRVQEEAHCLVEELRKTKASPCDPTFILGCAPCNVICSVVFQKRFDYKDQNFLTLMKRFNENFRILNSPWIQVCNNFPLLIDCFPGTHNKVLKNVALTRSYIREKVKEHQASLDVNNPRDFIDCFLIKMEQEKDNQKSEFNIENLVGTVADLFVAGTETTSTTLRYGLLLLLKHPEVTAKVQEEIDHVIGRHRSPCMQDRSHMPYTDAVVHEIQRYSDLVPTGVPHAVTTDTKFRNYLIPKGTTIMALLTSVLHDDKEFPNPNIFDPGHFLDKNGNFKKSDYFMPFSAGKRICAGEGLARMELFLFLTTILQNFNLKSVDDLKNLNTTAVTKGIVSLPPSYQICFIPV
The experiment in a line: Time dependent inhibition of CYP2C8 (unknown origin) at 30 uM measured after 30 mins relative to control. Format: ADME. The settings on record: read-out: TDI.

Series [19] in a line: Clearance in cynomolgus monkey at 0.5 mg/kg, iv measured up to 24 hrs by LC-MS/MS analysis. The format is ADME, organism-based, Macaca fascicularis. As to conditions: in vivo.
Series [20] concerns the target T3, CYP3A4. The experiment in a line: Time dependent inhibition of CYP3A4 (unknown origin) using testosterone as substrate at 30 uM measured after 30 mins relative to control. As to conditions: probe testosterone, read-out: TDI. The format is ADME.
Series [21] deals with CYP2C9 (Homo sapiens, UniProt P11712). The experiment in a line: Time dependent inhibition of CYP2C9 (unknown origin) at 30 uM measured after 30 mins relative to control. Format: ADME. The settings on record: read-out: TDI.
Series [22] in a line: Clearance in CD-1 mouse at 0.5 mg/kg, iv measured up to 24 hrs by LC-MS/MS analysis. The settings on record: in vivo. The format is ADME, organism-based.

Activity calls are given as the source filed them. The calls are words filed in the database; no cut-off is given here.

Chain of hERG (KCNH2) (Q12809 whole entry): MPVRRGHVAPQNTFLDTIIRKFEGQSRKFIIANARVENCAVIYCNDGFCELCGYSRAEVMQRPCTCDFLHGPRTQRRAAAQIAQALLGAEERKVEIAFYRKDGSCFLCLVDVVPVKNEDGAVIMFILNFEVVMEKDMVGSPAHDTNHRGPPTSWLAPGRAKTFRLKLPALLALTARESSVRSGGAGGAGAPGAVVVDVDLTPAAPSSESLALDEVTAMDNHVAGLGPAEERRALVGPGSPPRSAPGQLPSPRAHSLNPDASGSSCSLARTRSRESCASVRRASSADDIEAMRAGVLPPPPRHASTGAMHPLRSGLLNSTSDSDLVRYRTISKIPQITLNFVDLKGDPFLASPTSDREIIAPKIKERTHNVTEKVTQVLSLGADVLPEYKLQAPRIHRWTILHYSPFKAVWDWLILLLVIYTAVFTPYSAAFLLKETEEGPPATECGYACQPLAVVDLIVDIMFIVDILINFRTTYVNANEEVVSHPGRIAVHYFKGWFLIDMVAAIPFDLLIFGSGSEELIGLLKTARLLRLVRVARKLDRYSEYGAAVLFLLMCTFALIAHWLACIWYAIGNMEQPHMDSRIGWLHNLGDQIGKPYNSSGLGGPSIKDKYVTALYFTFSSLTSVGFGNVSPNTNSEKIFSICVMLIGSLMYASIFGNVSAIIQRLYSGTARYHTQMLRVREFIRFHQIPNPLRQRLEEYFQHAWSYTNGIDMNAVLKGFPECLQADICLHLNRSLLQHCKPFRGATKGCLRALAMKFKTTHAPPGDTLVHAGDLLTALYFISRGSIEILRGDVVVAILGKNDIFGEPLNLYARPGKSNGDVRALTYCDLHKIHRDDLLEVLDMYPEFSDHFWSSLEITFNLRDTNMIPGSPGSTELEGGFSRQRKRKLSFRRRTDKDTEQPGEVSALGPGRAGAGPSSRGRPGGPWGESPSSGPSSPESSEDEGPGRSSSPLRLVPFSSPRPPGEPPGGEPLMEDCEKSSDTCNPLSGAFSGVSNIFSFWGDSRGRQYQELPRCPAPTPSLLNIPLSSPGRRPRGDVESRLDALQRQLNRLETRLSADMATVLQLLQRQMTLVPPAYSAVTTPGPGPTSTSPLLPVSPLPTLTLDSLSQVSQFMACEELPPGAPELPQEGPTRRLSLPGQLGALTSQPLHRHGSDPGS
T3 sequence (P08684 whole entry): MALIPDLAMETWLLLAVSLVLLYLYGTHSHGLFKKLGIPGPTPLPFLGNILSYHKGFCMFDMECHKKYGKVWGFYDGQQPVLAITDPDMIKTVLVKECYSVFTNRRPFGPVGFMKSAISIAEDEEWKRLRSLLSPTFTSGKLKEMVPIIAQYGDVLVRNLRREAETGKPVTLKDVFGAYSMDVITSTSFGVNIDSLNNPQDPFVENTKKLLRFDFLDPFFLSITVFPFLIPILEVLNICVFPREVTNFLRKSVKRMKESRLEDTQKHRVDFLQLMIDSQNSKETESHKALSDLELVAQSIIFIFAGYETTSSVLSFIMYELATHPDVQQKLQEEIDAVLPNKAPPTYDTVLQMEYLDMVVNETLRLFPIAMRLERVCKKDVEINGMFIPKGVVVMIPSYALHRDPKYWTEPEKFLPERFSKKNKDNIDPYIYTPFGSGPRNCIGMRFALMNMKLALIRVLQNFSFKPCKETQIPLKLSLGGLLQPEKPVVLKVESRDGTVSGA
Chain of CYP2D6 (P10635 whole entry): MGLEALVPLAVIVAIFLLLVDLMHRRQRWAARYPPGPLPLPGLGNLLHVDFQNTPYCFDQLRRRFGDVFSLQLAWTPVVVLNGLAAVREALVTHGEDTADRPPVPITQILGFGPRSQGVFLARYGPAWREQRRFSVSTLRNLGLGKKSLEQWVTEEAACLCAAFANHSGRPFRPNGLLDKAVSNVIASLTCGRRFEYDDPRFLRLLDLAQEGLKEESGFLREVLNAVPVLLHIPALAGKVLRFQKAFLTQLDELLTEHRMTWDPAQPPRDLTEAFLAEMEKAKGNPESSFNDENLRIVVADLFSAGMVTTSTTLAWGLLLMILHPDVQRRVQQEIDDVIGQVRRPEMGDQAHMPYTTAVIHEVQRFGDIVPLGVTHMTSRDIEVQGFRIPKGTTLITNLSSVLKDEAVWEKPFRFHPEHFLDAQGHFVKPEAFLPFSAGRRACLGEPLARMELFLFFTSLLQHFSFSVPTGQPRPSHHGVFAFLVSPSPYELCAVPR
Chain of CYP2C19 (P33261 whole entry): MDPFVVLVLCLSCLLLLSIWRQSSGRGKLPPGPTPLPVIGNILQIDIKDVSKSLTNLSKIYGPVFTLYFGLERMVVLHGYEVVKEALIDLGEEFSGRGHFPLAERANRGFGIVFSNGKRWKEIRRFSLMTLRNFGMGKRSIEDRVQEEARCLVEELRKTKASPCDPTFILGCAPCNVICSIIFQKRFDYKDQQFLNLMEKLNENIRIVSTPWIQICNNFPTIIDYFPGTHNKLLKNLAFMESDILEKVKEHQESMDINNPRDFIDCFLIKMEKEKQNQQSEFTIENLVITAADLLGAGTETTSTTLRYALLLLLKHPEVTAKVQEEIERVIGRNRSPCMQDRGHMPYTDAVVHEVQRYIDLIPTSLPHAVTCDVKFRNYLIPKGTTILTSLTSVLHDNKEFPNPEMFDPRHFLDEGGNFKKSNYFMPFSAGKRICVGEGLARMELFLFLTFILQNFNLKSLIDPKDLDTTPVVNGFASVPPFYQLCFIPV
Chain of CYP2C9 (P11712 whole entry): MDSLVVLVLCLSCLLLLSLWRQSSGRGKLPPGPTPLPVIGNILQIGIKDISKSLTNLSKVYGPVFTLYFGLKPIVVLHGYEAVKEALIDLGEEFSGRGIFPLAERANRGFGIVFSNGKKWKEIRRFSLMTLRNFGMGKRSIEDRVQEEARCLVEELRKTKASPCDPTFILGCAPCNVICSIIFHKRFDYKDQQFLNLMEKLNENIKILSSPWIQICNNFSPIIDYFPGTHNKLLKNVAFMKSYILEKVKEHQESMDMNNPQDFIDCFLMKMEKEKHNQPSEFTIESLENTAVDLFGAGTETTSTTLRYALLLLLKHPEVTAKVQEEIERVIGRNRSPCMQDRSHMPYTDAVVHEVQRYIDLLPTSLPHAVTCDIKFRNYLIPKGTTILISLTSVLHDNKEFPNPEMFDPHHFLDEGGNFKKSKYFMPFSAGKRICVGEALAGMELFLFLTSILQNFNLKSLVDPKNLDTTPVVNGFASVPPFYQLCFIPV

What is called efflux ratio is a quotient of directional permeabilities that is used to spot active efflux. In general, AUC(0-inf) refers to total exposure, with the tail of the curve extrapolated. The clearance is the rate of elimination divided by the concentration. One may read the IC50 as the concentration that inhibits the measured activity by half. One may read the Kd as the constant that tells how readily two partners part at equilibrium. On to `O=C1OCCN1c1ccc(-c2n[nH]c3ncc(-c4ccc5c(c4)CC[C@@H](N4C6COCC4C6)CC5)cc23)cc1`, for which the Papp A→B in series [1] worked out at 8 ×10⁻⁶ cm/s. The hepatocyte CLint in series [2] was less than 2.7 µL/min/1e6 cells; in [5] it was 4.3 µL/min/1e6 cells. The efflux ratio in [3] amounted to 3.3. In series [4], this molecule returned an AUC(0-inf) of 1500 ng·h/mL. For the same molecule, the clearance in series [6] is 8.17 mL/min/kg. Moreover, the IC50 in series [7] worked out at 390 nM; in series [8], 15 nM. Further, the equilibrium dissociation constant (Kd) in series [9] was 27 nM. Besides, in series [10], the inhibition at 10 µM amounted to 44%.
As for `CCN(CC)CCNC(=O)c1c(C)[nH]c(/C=C2\C(=O)Nc3ccc(F)cc32)c1C`, the result in series [11] was inactive.
For the molecule `Cc1cccnc1-c1ccc(-c2c[nH]c3ncc(-c4ccc5c(c4)CC[C@@H](N4C6COCC4C6)CC5)cc23)cc1`, the clearance in series [12] was 11.8 mL/min/kg; in series [6], 2.67 mL/min/kg; in series [19] it was 4.67 mL/min/kg; in series [22], 3.33 mL/min/kg. Besides, the Papp A→B in series [1] was determined as 0.58 ×10⁻⁶ cm/s. For the same molecule, the hepatocyte CLint is less than 2.7 µL/min/1e6 cells in series [2] and 5.4 µL/min/1e6 cells in series [5]. Also, the efflux ratio in series [3] stood at 0.9. Besides, the total exposure AUC(0-inf) in [4] turned out to be 4800 ng·h/mL. Further, the inhibition at 0.5 h, 30 µM in series [13] turned out to be 0%; in series [14] it was 14%; in series [15] it was 12%; in [16] it was 58%; in [17], 14%; in series [18], 0%. For the same molecule, the inhibition at 0.5 h, 30 µM in series [20] was found to be 69%; in series [21], 13%. For the same molecule, the IC50 in [7] amounted to 67 nM; in series [8], 0.72 nM. In addition, in series [10], the inhibition at 10 µM came to 40%.
On to `Cc1cccnc1-c1ccc(-c2n[nH]c3ncc(-c4ccc5c(c4)CC[C@@H](N4C6COCC4C6)CC5)cc23)cc1`, for which the clearance was 25 mL/min/kg in series [12], 2.67 mL/min/kg in [6], 6.83 mL/min/kg in series [19] and 5.33 mL/min/kg in series [22]. For the same molecule, the Papp A→B in series [1] is 0.96 ×10⁻⁶ cm/s. Moreover, the figures for the hepatocyte CLint in series [2] and in series [5] were less than 2.7 µL/min/1e6 cells and 2.7 µL/min/1e6 cells, respectively. Moreover, in [3], the efflux ratio was determined as 1. In addition, the AUC(0-inf) in series [4] was 3000 ng·h/mL. Further, the inhibition at 0.5 h, 30 µM in [13] came to 24%; in [14], 2.4%; in [15], 23%; in [16], 31%; in [17] it was 22%; in [18], 14%. Further, the inhibition at 0.5 h, 30 µM in series [20] was 50%; in series [21] it was 0%. Moreover, the concentration for half-maximal inhibition (IC50) in series [7] came out at 65 nM; in [8], 2.4 nM. Moreover, the inhibition at 10 µM in series [10] was 23%.
